“And” between values parts separate entries of the source, which are not always exact repeats. Equal entries are not always repeated.
Tests used:
[1] = tested on: middle cerebral artery occlusion (MCAO); experiment: MCAO with 7 days of reperfusion, treatment started 12 h after reperfusion; format: in vivo, rat; set-up: key to neurological deficit, 4-score system: 0 = no deficit to 4 = most severe deficit; key to neurological deficit, 14-score system: 14-point limb placing score; lower = more severe deficit; settings: for mean infarct size (H&E defined lesion area): controls 22.6±3.6%
Description: Adult male Wistar rats weighing 160-180 g were purchased from Charles River (Wilmington, Mass.), acclimatized to the new vivarium for 5-7 days and used for the surgery when they weighed 200-230 g. Rats were anesthetized using box induction with 5% isoflurane and then maintained on 0.5%-1.5% isoflurane in medical grade oxygen via a facemask. In order to assure consistent reduction of cerebral blood flow (CBF) throughout the procedure, we affixed a small hand-made adaptor for the Laser Doppler probe (Moor Instruments, Wilmington, Del.) to the surface of the skull. The center of the adapter was 5 mm lateral to the central fusion line and 2.5 mm posterior to bregma. Instant adhesive and dental cement were applied to the base and around the edges of the small plastic adapter to hold the Doppler probe. The adapter with the attached probe remained in place throughout the MCAO surgery to confirm continuous occlusion and later the establishment of reperfusion. Focal cerebral ischemia was then induced by occlusion of the left middle cerebral artery (MCA). The left common carotid artery was surgically exposed, the external carotid artery was ligated distally from the common carotid artery, and a silicone rubber coated nylon monofilament with a tip diameter of 0.43±0.02 mm (Doccol Corp., Redlands, Calif.) was inserted into the external carotid artery and advanced into the internal carotid artery to block the origin of the middle cerebral artery (when maximum CBF reduction observed). The filament was kept in place for 90 min and then withdrawn and removed from the blood vessel to restore blood supply. […] Neurological deficits were scored according to a 4-score test and a tactile and/or proprioceptive limb-placing test as follows: 1) 4-score test (higher score for more severe neurological deficits): 0=no apparent deficit; 1=contralateral forelimb is consistently flexed during suspension by holding the tail; 2=decreasing grip ability on the contralateral forelimb while tail pulled; 3=spontaneous movement in all directions but circling to contralateral side when pulled by the tail; 4=spontaneous contralateral circling or depressed level of consciousness. 2) 14-score limb placing test (lower score for more severe neurological deficits): Proprioception, forward extension, lateral abduction, and adduction were tested with vision or tactile stimuli. For visual limb placing, rats were held and slowly moved forward or lateral toward the top of a table. Normal rats placed both forepaws on the tabletop. Tactile forward and lateral limb placing were tested by lightly contacting the table edge with the dorsal or lateral surface of a rat's paw while avoiding whisker contact and covering the eyes to avoid vision. For proprioceptive hind limb placing, each rat was pushed along the edge of an elevated platform in order to test proprioceptive hind limb adduction. The paw was pulled down and away from the platform edge, and the ability to retrieve and place the paw on the table surface upon sudden release was assessed. For each test, limb placing scores were 0=no placing; 1=incomplete and/or delayed (>2 seconds) placing; or 2=immediate and complete placing. For each body side, the maximum summed visual limb placing score was 4 and the maximum summed tactile and proprioceptive limb placing score, including the platform test, was 10.
Rats were euthanized with an overdose of isoflurane. Blood samples for determination of electrolytes, pH, pCO2, glucose and hemoglobin (I-STAT; Abbott, Princeton, N.J.) were drawn from the vena cava and brains quickly removed and sectioned into eight 2-mm thick slices starting from the frontal pole. Slices were then fixed in 10% buffer formalin embedded in paraffin and sectioned at 5 Sections were stained with hematoxylin & eosin and scanned. […]

[2] = Physiological parameters by I-STAT in venous blood of MCAO rats; format: in vivo, rat; settings: After Reperfusion, ±SD
p38MAPK = p38MAPK phosphorylation in microglia (Western blot); format: cell-based, mouse; settings: doxycycline 20 μM, TRAM-34 1 μM, FIG. 2D
Procedure: Primary microglia cultures derived from newborn C57BL/6J mice were prepared from mixed glia cultures with the “shaking off” method described by Maezawa, I., et al.; (2006) FASEB J 20, 797-799. […] To obtain conditioned medium (CM) for treating neurons, microglia were first cultured in 24-well culture plates at a density of 1.3×10^5 cells/cm^2 for 24 hrs in DMEM with 10% fetal bovine serum (DMEM10). Cultures were washed extensively and changed to the Neurobasal medium with B27 supplement (NB/B27, Invitrogen) without serum and cultured for another 24 hrs. The NB/B27-based microglia CMs were collected, briefly centrifuged, and used immediately or frozen for future uses.
To obtain lysates, cells or tissues were washed with ice-cold PBS and incubated with a buffer containing 50 mmol/L Tris-HCl (pH 7.4), 150 mmol/L NaCl, 2% SDS, proteinase inhibitor cocktail (Sigma), and phosphatase inhibitor cocktail (Sigma). Lysates were briefly sonncated and cleared by centrifugation at 50,000 rpm for 10 min. Equivalent amounts of protein were analyzed by Tris/HCL gel electrophoresis. Proteins were transferred to polyvinylidene difluoride membranes and probed with antibodies. Visualization was performed using enhanced chemiluminescence (ECL, Amersham Pharmacia, Piscataway, N.J.).
The following primary antibodies (dilutions) were used: anti-p38MAPK (1:1000, Cell Signaling Technology, Boston, Mass.), anti-phospho-p38MAPK (1:1000, Cell Signaling Technology), anti-Synaptophysin (1:1000, Abcam), anti-PSD95 (1:1000, cell signaling), anti-GRIP 1 (1:1000, UpState), anti-MAP2 (1:1000, Chemicon), anti-acetylated α-tubulin (1:2000, Zymed), and anti-β-actin (1:3000, Sigma). Secondary antibodies were HRP-conjugated anti-rabbit, anti-goat, or anti-mouse antibody (1:3000 Amersham).

microglia [3] = experiment: Assay for nitric oxide (nitrite) in microglia conditioned medium; format: cell-based, mouse; settings: 24 hr
microglia [4] = experiment: AβO-induced microglia proliferation/activation (cell number); format: cell-based, mouse; settings: soluble AD hippocampus extracts

Clc1ccccc1C(c1ccccc1)(c1ccccc1)n1cccn1 [TRAM-34, 1-[(2-chlorophenyl)diphenylmethyl]-1H-pyrazole]
neurological deficit, 14-score system ([1]; 10 mg/kg group, 12 h after reperfusion (start of treatment), vehicle 4.3±0.94): 4.8±0.63 | neurological deficit, 4-score system ([1]; 10 mg/kg group, 12 hours after reperfusion (start of treatment), vehicle 3.1±0.20): 3.3±0.50 | neurological deficit, 4-score system ([1]; 10 mg/kg, 196 h (=7 days) after reperfusion, vehicle 1.5±0.30, P=0.24): 0.8±0.10 | neurological deficit, 14-score system ([1]; 10 mg/kg, 196 h (=7 days) after reperfusion, vehicle 7.5±0.46, P=0.004): 9.8±0.01 | microglia activation (ED1+ area) ([1]; 10 mg/kg, delayed administration): did not result in a significant reduction | brain shrinkage ([1]; 10 mg/kg, P=0.11, not significant): tended to reduce | number of TUNEL-positive cells in cortex and striatum ([1]; 10 mg/kg, P=0.143 cortex, 0.230 striatum): did not reach statistical significance | mean infarct size (H&E defined lesion area) ([1]; 10 mg/kg, mean±SEM, P=0.039): 11.3±2.8% | neurological deficit, 14-score system ([1]; 40 mg/kg group, 12 h after reperfusion (start of treatment), vehicle 4.3±0.94): 3.4±0.46 | neurological deficit, 4-score system ([1]; 40 mg/kg group, 12 hours after reperfusion (start of treatment), vehicle 3.1±0.20): 3.0±0.80 | neurological deficit, 4-score system ([1]; 40 mg/kg, day-7 / 196 h after reperfusion, vehicle 1.5±0.30, P=0.02): 0.5 and 0.4±0.01 | neurological deficit, 14-score system ([1]; 40 mg/kg, day-7 / 196 h after reperfusion, vehicle 7.5±0.46, P<0.001): 11±0.38 and 12 | number of apoptotic (TUNEL positive) cells in cortex and striatum ([1]; 40 mg/kg, P=0.0067 cortex, 0.033 striatum): significantly reduced | average number of surviving NeuN+ neurons in the infarcted hemisphere ([1]; 40 mg/kg, P=0.052): increase | mean infarct size (H&E defined lesion area) ([1]; 40 mg/kg, P=0.004): 8.1±1.9% | ED1+ area in the infarcted hemisphere ([1]; 40 mg/kg, vehicle 3770.6±594.2, P=0.03, mean±SEM): 1632.6±363.75 pixels/mm^2 | reduction of infarct area (H&E, day-7) ([1]; 10 or 40 mg/kg i.p. twice daily 7 days from 12 h after reperfusion, both doses): ~50% | BUN ([2]; TRAM-34 10 mg/kg): 12.8 ± 7.2 mg/dL | Glucose ([2]; TRAM-34 10 mg/kg): 179.2 ± 48.2 mg/dL | Na^+ ([2]; TRAM-34 10 mg/kg): 134.4 ± 2.3 mmol/L | BUN ([2]; TRAM-34 40 mg/kg): 22.2 ± 4.0 mg/dL | Glucose ([2]; TRAM-34 40 mg/kg): 171.8 ± 54.3 mg/dL | HCO3^− ([2]; TRAM-34 40 mg/kg): 32.5 ± 5.7 mmol/L | pH ([2]; TRAM-34 40 mg/kg): 7.4 ± 0.13 | LPS-induced p38MAPK phosphorylation (p38MAPK; LPS 100 ng/ml, 30 minutes): no significant difference | AβO-induced p38MAPK phosphorylation (p38MAPK; microglia treated 30 minutes): no significant difference | microglia NO production, compound alone (microglia [3]; without AβO): did not affect NO production | AβO-induced increase of microglia NO production (microglia [3]; 20 μM doxycycline, 1 μM TRAM-34, FIG. 2F): prevented | microglia activation / mitogenic effect induced by human brain AβO (microglia [4]): blocked

— US20130281504A1, “Reduction of Microglia-Mediated Neurotoxicity by KCa3.1 Inhibition” (THE REGENTS OF THE UNIVERSITY OF CALIFORNIA, priority 2010, published 2013)
